Laboratory results as given in patent US20050164370A1 (priority 2003, published 2005).

Experiments:
cytokinin receptor AHK2Δ = target: T1, cytokinin receptor AHK2Δ (Arabidopsis thaliana, UniProt Q9C5U2); conditions: TM182-AHK2Δ, DOLU+Glu agar, 30° C. for 30 hours
T1 sequence (Q9C5U2 196-1176): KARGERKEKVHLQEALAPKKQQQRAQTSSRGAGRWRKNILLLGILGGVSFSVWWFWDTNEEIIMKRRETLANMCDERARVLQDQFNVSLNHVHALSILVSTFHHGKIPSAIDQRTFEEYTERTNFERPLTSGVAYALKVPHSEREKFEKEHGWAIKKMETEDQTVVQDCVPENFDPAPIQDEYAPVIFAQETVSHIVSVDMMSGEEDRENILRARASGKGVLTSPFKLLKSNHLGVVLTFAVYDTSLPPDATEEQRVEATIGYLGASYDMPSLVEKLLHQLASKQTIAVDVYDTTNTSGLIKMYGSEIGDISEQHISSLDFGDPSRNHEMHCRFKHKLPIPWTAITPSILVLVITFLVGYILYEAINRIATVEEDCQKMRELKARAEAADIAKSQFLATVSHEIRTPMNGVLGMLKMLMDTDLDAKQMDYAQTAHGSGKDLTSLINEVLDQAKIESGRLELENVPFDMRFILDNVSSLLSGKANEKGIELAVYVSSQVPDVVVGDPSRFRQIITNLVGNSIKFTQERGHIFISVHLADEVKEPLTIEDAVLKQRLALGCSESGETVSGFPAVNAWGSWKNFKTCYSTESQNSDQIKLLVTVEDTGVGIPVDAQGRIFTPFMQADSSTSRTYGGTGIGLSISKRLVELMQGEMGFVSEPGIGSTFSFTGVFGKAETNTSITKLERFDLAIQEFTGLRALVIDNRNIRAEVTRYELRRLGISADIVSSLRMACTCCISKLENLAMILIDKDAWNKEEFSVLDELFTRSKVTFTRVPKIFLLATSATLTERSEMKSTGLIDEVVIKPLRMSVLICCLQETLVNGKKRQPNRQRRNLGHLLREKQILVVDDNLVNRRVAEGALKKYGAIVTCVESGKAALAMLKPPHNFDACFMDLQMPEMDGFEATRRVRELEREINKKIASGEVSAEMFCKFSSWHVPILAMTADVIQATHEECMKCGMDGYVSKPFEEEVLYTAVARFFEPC
Method: (§1) A culture solution 10 μl (about 800 clones of yeast) of the transformed cells TM182-CRE1, TM182-AHK2, TM182-AHK2Δ and TM182-AHK3 produced by the example 12 was spotted on DOLU+Glu agar media containing 10 μM of trans-zeatin and cultured at 30° C. for 30 hours. After incubation, the growth state of the transformed cells was observed and photographed by a digital camera.
(§2) Culture solutions of the transformed cells TM182-CRE1, TM182-AHK2Δ and TM182-AHK2 produced by the reference example 1 were spotted on DOLU+Glu agar media containing cytokinin in a variety of concentrations (1 nM, 10 nM, 100 nM, 1 μM, 10 μM, 100 μM) and cultured at 30° C. for 30 hours. After incubation, the growth state of the transformed cells was observed and photographed by a digital camera.

cytokinin receptor AHK2 = target: T2, cytokinin receptor AHK2 (Arabidopsis thaliana, UniProt Q9C5U2); conditions: TM182-AHK2, DOLU+Glu agar, 30° C. for 30 hours
T2 sequence (Q9C5U2 1-1176): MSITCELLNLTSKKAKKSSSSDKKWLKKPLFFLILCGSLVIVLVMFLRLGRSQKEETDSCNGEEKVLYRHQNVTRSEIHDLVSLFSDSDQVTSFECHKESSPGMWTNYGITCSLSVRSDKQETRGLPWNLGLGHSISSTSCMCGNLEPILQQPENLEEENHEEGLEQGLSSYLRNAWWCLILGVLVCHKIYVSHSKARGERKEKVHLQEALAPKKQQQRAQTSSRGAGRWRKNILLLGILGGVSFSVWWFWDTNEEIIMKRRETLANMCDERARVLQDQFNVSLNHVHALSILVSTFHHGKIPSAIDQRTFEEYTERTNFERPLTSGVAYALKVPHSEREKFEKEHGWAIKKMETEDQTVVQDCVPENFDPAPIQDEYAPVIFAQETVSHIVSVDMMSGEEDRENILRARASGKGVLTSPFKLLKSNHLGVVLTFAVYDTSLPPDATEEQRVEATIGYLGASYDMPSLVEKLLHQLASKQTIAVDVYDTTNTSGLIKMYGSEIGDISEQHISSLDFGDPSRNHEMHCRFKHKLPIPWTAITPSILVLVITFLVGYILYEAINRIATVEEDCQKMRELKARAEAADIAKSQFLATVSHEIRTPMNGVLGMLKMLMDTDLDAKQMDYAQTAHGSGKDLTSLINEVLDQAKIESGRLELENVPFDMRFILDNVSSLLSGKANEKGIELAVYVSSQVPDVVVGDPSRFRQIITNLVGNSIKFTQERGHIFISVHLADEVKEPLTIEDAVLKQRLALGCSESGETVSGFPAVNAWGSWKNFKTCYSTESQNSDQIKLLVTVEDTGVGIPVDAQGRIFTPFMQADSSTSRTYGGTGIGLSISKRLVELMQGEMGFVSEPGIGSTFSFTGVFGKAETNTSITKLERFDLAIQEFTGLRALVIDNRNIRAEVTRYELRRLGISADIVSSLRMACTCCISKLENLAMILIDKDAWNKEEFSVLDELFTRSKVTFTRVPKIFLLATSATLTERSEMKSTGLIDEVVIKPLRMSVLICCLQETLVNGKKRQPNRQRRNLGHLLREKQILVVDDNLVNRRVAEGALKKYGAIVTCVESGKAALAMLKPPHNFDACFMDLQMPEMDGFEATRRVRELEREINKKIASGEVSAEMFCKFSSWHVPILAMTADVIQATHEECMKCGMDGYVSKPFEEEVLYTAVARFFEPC
Method: as §1, §2

cytokinin receptor CRE1 = cytokinin receptor CRE1 (Arabidopsis thaliana, UniProt Q9C5U0, S567G/T1018A); conditions: TM182-CRE1, DOLU+Glu agar, 30° C. for 30 hours
cytokinin receptor CRE1, sequence (Q9C5U0 24-1080 S567G/T1018A): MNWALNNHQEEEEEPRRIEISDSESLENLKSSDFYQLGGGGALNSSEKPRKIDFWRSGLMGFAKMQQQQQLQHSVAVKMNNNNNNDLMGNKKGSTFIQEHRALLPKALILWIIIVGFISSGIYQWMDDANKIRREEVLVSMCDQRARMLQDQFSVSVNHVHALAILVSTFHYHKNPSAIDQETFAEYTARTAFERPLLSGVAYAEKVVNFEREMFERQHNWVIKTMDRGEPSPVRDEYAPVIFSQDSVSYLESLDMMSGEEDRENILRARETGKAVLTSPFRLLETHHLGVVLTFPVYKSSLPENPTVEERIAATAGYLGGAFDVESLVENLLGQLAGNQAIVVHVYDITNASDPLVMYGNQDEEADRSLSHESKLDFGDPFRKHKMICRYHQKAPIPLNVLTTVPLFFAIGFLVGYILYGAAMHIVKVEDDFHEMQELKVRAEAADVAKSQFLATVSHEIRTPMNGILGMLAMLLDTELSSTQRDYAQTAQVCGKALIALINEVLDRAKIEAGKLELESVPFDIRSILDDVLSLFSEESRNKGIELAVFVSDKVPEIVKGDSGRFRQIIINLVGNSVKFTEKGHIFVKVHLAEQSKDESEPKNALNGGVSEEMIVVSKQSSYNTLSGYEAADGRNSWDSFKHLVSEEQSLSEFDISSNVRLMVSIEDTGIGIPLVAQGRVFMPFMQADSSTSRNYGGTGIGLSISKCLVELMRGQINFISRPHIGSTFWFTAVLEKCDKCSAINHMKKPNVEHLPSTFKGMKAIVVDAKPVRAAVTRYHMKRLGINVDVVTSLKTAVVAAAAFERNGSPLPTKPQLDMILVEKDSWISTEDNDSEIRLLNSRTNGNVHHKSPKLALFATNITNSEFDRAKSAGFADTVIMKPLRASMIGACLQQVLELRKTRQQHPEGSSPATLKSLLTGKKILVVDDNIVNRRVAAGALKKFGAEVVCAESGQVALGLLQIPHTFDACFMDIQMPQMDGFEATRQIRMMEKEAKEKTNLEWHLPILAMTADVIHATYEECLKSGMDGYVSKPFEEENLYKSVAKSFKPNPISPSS
Method: as §1, §2

C/C(=C\CNc1ncnc2nc[nH]c12)CO [trans-zeatin]
lowest observed supply concentration in which the transformed cells could be grown (cytokinin receptor AHK2Δ; 1 nM to 100 μM tested): 100 nM
growth state of the transformed cells as compared with media containing no trans-zeatin (cytokinin receptor AHK2Δ; 10 μM): high growth
lowest observed supply concentration in which the transformed cells could be grown (cytokinin receptor AHK2; 1 nM to 100 μM tested): 1 µM
growth state of the transformed cells as compared with media containing no trans-zeatin (cytokinin receptor AHK2; 10 μM): high growth
lowest observed supply concentration in which the transformed cells could be grown (cytokinin receptor CRE1; 1 nM to 100 μM tested): 10 µM
growth state of the transformed cells as compared with media containing no trans-zeatin (cytokinin receptor CRE1; 10 μM): high growth
